According to patent US8778888B2, “Cystine knot peptides binding to alpha IIb beta 3 integrins and methods of use” (The Board of Trustees of the Leland Stanford Junior …, priority 2009, dated 2014):

biological target: T1, αIIbβ3 integrin (K562-αIIbβ3 cells) (Homo sapiens, UniProt P05106+P08514); assay: Cell binding assay on K562-αIIbβ3 cells (flow cytometry); conditions: K562-αIIbβ3 versus K562-αvβ3 cells
T1 construct: expressed in transfected cells; host or cells: K562 leukemia cells (from S. Blystone)
T1 sequence (P08514 32-887 limits assumed): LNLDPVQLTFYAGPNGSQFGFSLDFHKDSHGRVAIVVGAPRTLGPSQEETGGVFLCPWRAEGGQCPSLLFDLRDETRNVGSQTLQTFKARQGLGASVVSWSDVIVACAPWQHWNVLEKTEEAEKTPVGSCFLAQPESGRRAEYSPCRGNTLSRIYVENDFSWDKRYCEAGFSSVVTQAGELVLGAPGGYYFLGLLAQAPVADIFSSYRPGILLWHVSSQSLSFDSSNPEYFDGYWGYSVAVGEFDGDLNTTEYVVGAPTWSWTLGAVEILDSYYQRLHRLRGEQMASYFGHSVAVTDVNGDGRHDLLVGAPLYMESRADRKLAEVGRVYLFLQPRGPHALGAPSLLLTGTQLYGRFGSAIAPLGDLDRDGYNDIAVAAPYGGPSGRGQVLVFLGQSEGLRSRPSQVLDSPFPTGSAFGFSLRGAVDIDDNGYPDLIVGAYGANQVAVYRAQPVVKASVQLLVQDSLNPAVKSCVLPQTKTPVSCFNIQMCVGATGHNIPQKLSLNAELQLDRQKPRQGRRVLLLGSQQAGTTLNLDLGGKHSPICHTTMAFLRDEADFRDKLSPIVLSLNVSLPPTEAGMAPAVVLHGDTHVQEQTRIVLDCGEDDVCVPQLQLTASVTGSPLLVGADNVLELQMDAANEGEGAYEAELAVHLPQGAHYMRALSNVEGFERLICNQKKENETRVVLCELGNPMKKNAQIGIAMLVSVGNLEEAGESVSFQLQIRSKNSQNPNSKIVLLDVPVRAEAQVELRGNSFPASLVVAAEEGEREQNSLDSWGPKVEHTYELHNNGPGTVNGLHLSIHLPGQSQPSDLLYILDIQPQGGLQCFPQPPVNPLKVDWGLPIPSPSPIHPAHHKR
T1 sequence (P08514 891-1039 partner limits assumed): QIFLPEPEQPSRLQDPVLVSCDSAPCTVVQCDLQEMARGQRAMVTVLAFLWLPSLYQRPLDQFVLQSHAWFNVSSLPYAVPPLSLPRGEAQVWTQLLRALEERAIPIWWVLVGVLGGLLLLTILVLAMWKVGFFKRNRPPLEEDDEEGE
T1 sequence (P05106 27-788): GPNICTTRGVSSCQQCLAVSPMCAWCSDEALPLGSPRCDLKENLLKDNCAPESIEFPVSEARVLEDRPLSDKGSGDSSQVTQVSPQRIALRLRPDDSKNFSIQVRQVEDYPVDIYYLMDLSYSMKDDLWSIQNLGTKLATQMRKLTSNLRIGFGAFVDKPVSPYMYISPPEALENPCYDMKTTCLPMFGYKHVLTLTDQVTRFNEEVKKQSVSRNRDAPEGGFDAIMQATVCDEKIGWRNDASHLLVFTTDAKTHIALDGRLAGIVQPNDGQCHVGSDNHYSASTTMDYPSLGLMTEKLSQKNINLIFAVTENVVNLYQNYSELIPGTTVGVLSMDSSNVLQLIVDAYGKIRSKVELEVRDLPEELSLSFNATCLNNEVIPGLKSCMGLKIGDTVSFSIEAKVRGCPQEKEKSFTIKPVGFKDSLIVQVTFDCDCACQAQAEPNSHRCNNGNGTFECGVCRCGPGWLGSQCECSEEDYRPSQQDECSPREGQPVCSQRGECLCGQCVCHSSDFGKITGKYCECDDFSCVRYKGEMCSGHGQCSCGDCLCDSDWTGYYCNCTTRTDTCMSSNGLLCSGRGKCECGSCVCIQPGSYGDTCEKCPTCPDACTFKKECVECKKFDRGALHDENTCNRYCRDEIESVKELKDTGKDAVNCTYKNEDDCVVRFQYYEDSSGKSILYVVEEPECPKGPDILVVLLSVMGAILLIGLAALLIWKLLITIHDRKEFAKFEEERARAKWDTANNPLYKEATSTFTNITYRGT
Experimental: K562 cells stably expressing αIIbβ3, αvβ3, or αvβ5 were obtained from S. Blystone and maintained in IMDM media (Gibco) containing 10% FBS and 1.0 mg/mL geneticin. For binding assays, 10^5 cells were suspended in IBB, and varying concentrations of AgRP peptides were added. After 3 hour incubation at 4° C., the cells were centrifuged, aspirated, and resuspended in ice-cold BPBS containing a 1:20 dilution of fluorescein-conjugated goat anti-His antibody (Bethyl) for […]. The cells were then centrifuged, aspirated, and stored as pellets on ice until analysis by flow cytometry using a BD FACS Caliber instrument Becton Dickinson. Binding data was analyzed with FlowJo (Treestar, Inc.) and data was fit to sigmoidal plots using Kaleidagraph (Synergy Software) to calculate equilibrium dissociation constants. Experiments were performed at least 3 times and data are presented as average values with standard deviations.
To determine the integrin binding affinities and specificities of the engineered AgRP peptides, direct binding assays were performed using K562 leukemia cells that have been transfected to stably express different integrin receptors See J. Cell Biol. 127(4) (1994). Cells were incubated in the presence of varying concentrations of AgRP peptides at 4° C., to minimize receptor internalization, followed by staining with a fluorescein-conjugated anti-hexahistidine antibody and analysis by flow cytometry. Equilibrium dissociation constants (KD values) were determined by plotting AgRP peptide concentration (log scale) versus normalized mean fluorescence intensity, then fitting the data to a sigmoidal curve.

SMILES | integrin binding specificity on K562 cell lines
CC(C)C[C@@H]1NC(=O)[C@@H]2CSSC[C@@H]3NC(=O)[C@H]([C@@H](C)O)NC(=O)[C@H](C)NC(=O)[C@H](C)NC(=O)[C@@H]4CCCN4C(=O)[C@H](CC(=O)O)NC(=O)[C@H](CSSC[C@H](NC(=O)CNC(=O)[C@H](CCCNC(=N)N)NC(=O)[C@@H]4CCCN4C(=O)[C@H](CCCCN)NC(=O)[C@H](CC(=O)O)NC(=O)[C@H](CC(=O)O)NC(=O)[C@H](CC(=O)O)NC(=O)[C@H](CC(=O)O)NC(=O)[C@H](CCCCN)NC(=O)[C@H](Cc4ccc(O)cc4)NC(=O)[C@H](CC(=O)O)NC(=O)[C@@H](NC(=O)[C@@H](N)Cc4ccc(O)cc4)C(C)C)C(=O)N[C@@H](C(C)C)C(=O)N[C@@H](CCCNC(=N)N)C(=O)N[C@@H](CC(C)C)C(=O)N[C@@H](Cc4c[nH]cn4)C(=O)N[C@@H](CCC(=O)O)C(=O)N[C@@H](CO)C(=O)N2)NC(=O)[C@H](CSSC[C@@H](C(=O)N[C@@H](CCCNC(=N)N)C(=O)N[C@H](C(=O)N[C@@H](CCCNC(=N)N)C(=O)N[C@@H](Cc2c[nH]cn2)C(=O)N[C@@H](Cc2c[nH]cn2)C(=O)N[C@@H](Cc2c[nH]cn2)C(=O)N[C@@H](Cc2c[nH]cn2)C(=O)N[C@@H](Cc2c[nH]cn2)C(=O)N[C@@H](Cc2c[nH]cn2)C(=O)O)[C@@H](C)O)NC(=O)[C@H](Cc2ccc(O)cc2)NC(=O)[C@@H]2CSSC[C@H](NC(=O)[C@H](Cc4ccc(O)cc4)NC3=O)C(=O)N[C@@H](CC(C)C)C(=O)N[C@@H](CCCCN)C(=O)N[C@@H](CCCNC(=N)N)C(=O)NCC(=O)N[C@@H](CC(=O)O)C(=O)N[C@@H](Cc3c[nH]c4ccccc34)C(=O)N[C@@H](CCCCN)C(=O)NCC(=O)N[C@@H](CCCCN)C(=O)N2)NC(=O)[C@@H]2CCCN2C(=O)[C@H](C(C)C)NC(=O)[C@H](CCC(N)=O)NC(=O)[C@H](CCC(N)=O)NC(=O)CNC1=O [Clone 2bA] | bound K562-αIIbβ3 cells only
CC(C)C[C@@H]1NC(=O)[C@@H]2CSSC[C@@H]3NC(=O)[C@H]([C@@H](C)O)NC(=O)[C@H](C)NC(=O)[C@H](C)NC(=O)[C@@H]4CCCN4C(=O)[C@H](CC(=O)O)NC(=O)[C@H](CSSC[C@H](NC(=O)CNC(=O)[C@H](CCCNC(=N)N)NC(=O)[C@@H]4CCCN4C(=O)[C@H](CCCCN)NC(=O)[C@H](CC(=O)O)NC(=O)[C@H](CC(=O)O)NC(=O)[C@H](CC(=O)O)NC(=O)[C@H](CC(=O)O)NC(=O)[C@H](CCCCN)NC(=O)[C@H](Cc4ccc(O)cc4)NC(=O)[C@H](CC(=O)O)NC(=O)[C@@H](NC(=O)[C@@H](N)Cc4ccc(O)cc4)C(C)C)C(=O)N[C@@H](C(C)C)C(=O)N[C@@H](CCCNC(=N)N)C(=O)N[C@@H](CC(C)C)C(=O)N[C@@H](Cc4c[nH]cn4)C(=O)N[C@@H](CCC(=O)O)C(=O)N[C@@H](CO)C(=O)N2)NC(=O)[C@H](CSSC[C@@H](C(=O)N[C@@H](CCCNC(=N)N)C(=O)N[C@H](C(=O)N[C@@H](CCCNC(=N)N)C(=O)N[C@@H](Cc2c[nH]cn2)C(=O)N[C@@H](Cc2c[nH]cn2)C(=O)N[C@@H](Cc2c[nH]cn2)C(=O)N[C@@H](Cc2c[nH]cn2)C(=O)N[C@@H](Cc2c[nH]cn2)C(=O)N[C@@H](Cc2c[nH]cn2)C(=O)O)[C@@H](C)O)NC(=O)[C@H](Cc2ccc(O)cc2)NC(=O)[C@@H]2CSSC[C@H](NC(=O)[C@H](Cc4ccc(O)cc4)NC3=O)C(=O)N[C@@H](CCCCN)C(=O)N[C@@H](CCCCN)C(=O)N[C@@H](CCCNC(=N)N)C(=O)NCC(=O)N[C@@H](CC(=O)O)C(=O)N[C@@H](Cc3c[nH]c4ccccc34)C(=O)N[C@@H](CCCCN)C(=O)N[C@@H](CCC(=O)O)C(=O)N[C@@H](CCCNC(=N)N)C(=O)N2)NC(=O)[C@@H]2CCCN2C(=O)[C@H](C(C)C)NC(=O)[C@H](CCC(N)=O)NC(=O)[C@H](CCC(N)=O)NC(=O)CNC1=O [Clone 2bO] | bound K562-αIIbβ3 cells only
CC(C)C[C@@H]1NC(=O)[C@@H]2CSSC[C@@H]3NC(=O)[C@H]([C@@H](C)O)NC(=O)[C@H](C)NC(=O)[C@H](C)NC(=O)[C@@H]4CCCN4C(=O)[C@H](CC(=O)O)NC(=O)[C@H](CSSC[C@H](NC(=O)CNC(=O)[C@H](CCCNC(=N)N)NC(=O)[C@@H]4CCCN4C(=O)[C@H](CCCCN)NC(=O)[C@H](CC(=O)O)NC(=O)[C@H](CC(=O)O)NC(=O)[C@H](CC(=O)O)NC(=O)[C@H](CC(=O)O)NC(=O)[C@H](CCCCN)NC(=O)[C@H](Cc4ccc(O)cc4)NC(=O)[C@H](CC(=O)O)NC(=O)[C@@H](NC(=O)[C@@H](N)Cc4ccc(O)cc4)C(C)C)C(=O)N[C@@H](C(C)C)C(=O)N[C@@H](CCCNC(=N)N)C(=O)N[C@@H](CC(C)C)C(=O)N[C@@H](Cc4c[nH]cn4)C(=O)N[C@@H](CCC(=O)O)C(=O)N[C@@H](CO)C(=O)N2)NC(=O)[C@H](CSSC[C@@H](C(=O)N[C@@H](CCCNC(=N)N)C(=O)N[C@H](C(=O)N[C@@H](CCCNC(=N)N)C(=O)N[C@@H](Cc2c[nH]cn2)C(=O)N[C@@H](Cc2c[nH]cn2)C(=O)N[C@@H](Cc2c[nH]cn2)C(=O)N[C@@H](Cc2c[nH]cn2)C(=O)N[C@@H](Cc2c[nH]cn2)C(=O)N[C@@H](Cc2c[nH]cn2)C(=O)O)[C@@H](C)O)NC(=O)[C@H](Cc2ccc(O)cc2)NC(=O)[C@@H]2CSSC[C@H](NC(=O)[C@H](Cc4ccc(O)cc4)NC3=O)C(=O)N[C@@H](CC(N)=O)C(=O)N[C@@H](CCCCN)C(=O)N[C@@H](CCCNC(=N)N)C(=O)NCC(=O)N[C@@H](CC(=O)O)C(=O)N[C@@H](Cc3c[nH]c4ccccc34)C(=O)N[C@@H](CCCNC(=N)N)C(=O)N[C@@H](CO)C(=O)N[C@@H](CCCCN)C(=O)N2)NC(=O)[C@@H]2CCCN2C(=O)[C@H](C(C)C)NC(=O)[C@H](CCC(N)=O)NC(=O)[C@H](CCC(N)=O)NC(=O)CNC1=O [Clone 2bJ] | bound K562-αIIbβ3 cells only
